Experimental data reported in PubChem BioAssay (NCI).
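Where inhibition never reached the appropriate level, the endpoint shown equals the highest concentration tested. Otherwise, values were interpolated linearly from a five-concentration, 48-hour dose response in 96-well plates. At the TGI there is no net growth.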

How the values were obtained:
Assay in all cases: growth of human tumour cells (NCI), 48 h
[1] = tested on: SF-539 CNS
[2] = tested on: 786-0 renal
[3] = tested on: M14 melanoma
[4] = tested on: OVCAR-5 ovarian
[5] = tested on: SF-268 CNS
[6] = tested on: SNB-19 CNS
[7] = tested on: HCT-116 colon
[8] = tested on: EKVX NSCLC
[9] = tested on: PC-3 prostate
[10] = tested on: MALME-3M melanoma

Row | Compound | TGI [1] [µM] | TGI [2] [µM] | TGI [3] [µM] | TGI [4] [µM] | TGI [5] [µM] | TGI [6] [µM] | TGI [7] [µM] | TGI [8] [µM] | TGI [9] [µM] | TGI [10] [µM]
1 | Cn1ccnc1Sc1ccc(C=Nc2ccc3nc(SCC(=O)NC4CCCCC4)sc3c2)cc1[N+](=O)[O-] | 22.3 | 49 | > 100 | > 100 | > 100 | 55.9 | > 100 | > 100 | > 100 | > 100
2 | N#CCCN(CCC#N)c1ccc(/C=C2\SC(=S)NC2=O)cc1Br | > 100 | > 100 | > 100 | > 100 | > 100 | 56.3 | > 100 | > 100 | > 100 | > 100
3 | CC(C)CCn1nc(N)c2nc3ccccc3nc21 | > 100 | > 100 | > 100 | > 100 | > 100 | > 100 | > 100 | > 100 | > 100 | > 100
4 | C=C1C(=O)OC2/C=C(/C)C3(O)OC(C)(CC(OC(=O)C(C)C)C12)CC3OC(C)=O (stereo not given) | > 29.5 | > 100 | 68 | 65.9 | > 100 | 36.6 | > 100 | 46.5 | 62.9 | 36.5
5 | O=C(O)c1ccc2c(c1)CC1(C2)Cc2cc3c(cc2C1=O)CCC3 (stereo not given) | > 100 | > 100 | > 100 | > 100 | > 100 | > 100 | > 100 | > 100 | > 100 | > 100
6 | CC/C(Cl)=N\OC(=O)Nc1ccc(F)c([N+](=O)[O-])c1 | > 100 | 26.8 | > 53.6 | 44.9 | 36.4 | 33.7 | 30.6 | 35.6 | 32.4 | 4.35
7 | CC1C(c2ccc3c(c2)OCO3)c2cc3c(cc2OC1N1CCOCC1)OCO3 (stereo not given) | 49.5 | > 100 | 76.9 | > 100 | > 100 | 86.5 | 47.3 | > 100 | > 100 | 97.6
8 | OC1(c2ccc(Cl)cc2)c2ccc(CN3CCCC3)cc2C2=NCCN21 (stereo not given) | 25.9 | 28.6 | 12.8 | 31.9 | 29.7 | 31.1 | 27.1 | 32.7 | 27.2 | 25.2
9 | O=C(CCc1cccc(O)c1)NCCCNC(=O)CCc1cccc(O)c1 | > 100 | > 100 | > 100 | > 100 | > 100 | > 100 | > 100 | > 100 | > 100 | > 100
10 | Cc1ccc(S(=O)(=O)NC(=O)NNc2ccc(F)cc2)cc1 | > 100 | > 100 | > 100 | > 100 | > 100 | > 100 | > 100 | > 100 | > 100 | > 100
11 | CCN(CC)CCNc1ccc2ncn3c4cc(OC)c(OC)c(=O)c4c(O)c1c23 | 29 | 26.4 | 30.3 | 45.4 | 17.6 | 22.6 | 5.82 | 33.2 | 21 | 36.8
12 | O=C1CS(=O)C23c4cc5ccccc5n4CCC2CCCN13 (stereo not given) | > 100 | > 100 | > 100 | > 100 | > 100 | > 100 | > 100 | > 100 | > 100 | > 100
13 | CN1COCc2cc3cc4c(cc3nc21)OCCO4 | > 100 | > 100 | > 100 | > 100 | > 100 | > 100 | > 100 | > 100 | > 100 | > 100
14 | COc1ccc(/C=N/N2C(=O)c3c(N)c(C#N)c(-c4ccccc4)c(-c4ccccc4)c3C2=O)cc1 | > 100 | > 100 | > 100 | > 100 | > 100 | > 100 | > 100 | > 100 | > 100 | > 100
15 | NS(=O)(=O)c1ccc(NC(NC(=O)C(C(F)(F)F)C(F)(F)F)(C(F)(F)F)C(F)(F)F)cc1 | > 100 | > 100 | > 100 | > 100 | > 100 | > 100 | > 100 | > 100 | > 100 | > 100
16 | Cc1ccc(-c2c(C#N)c(-c3ccc([N+](=O)[O-])cc3)c(C#N)c(=O)n2NS(=O)(=O)c2ccccc2)cc1 | > 100 | > 100 | > 100 | > 100 | > 100 | > 100 | > 100 | > 100 | > 100 | > 100
17 | CC(C)(C)C(=O)C(Cc1ccccc1)C(=O)C(C)(C)C | > 100 | > 100 | > 100 | > 100 | > 100 | > 100 | > 100 | > 100 | > 100 | > 100
18 | Clc1ccc(Cl)c(SCCCN2CCNCC2)c1 | 51.4 | 52.1 | 35.3 | 32.5 | 33.9 | 34.4 | 41.5 | 34.7 | 29.7 | 31.8
19 | c1ccc(C2=Nn3c(CCCCCCCCc4nnc5n4N=C(c4ccccc4)CS5)nnc3SC2)cc1 | 46.4 | 33.2 | > 100 | > 100 | > 81.8 | 43.3 | > 100 | > 100 | > 100 | > 89.6

Row | Compound | TGI [1] [µM] | TGI [2] [µM] | TGI [3] [µM] | TGI [4] [µM] | TGI [5] [µM] | TGI [6] [µM] | TGI [7] [µM] | TGI [8] [µM] | TGI [9] [µM] | TGI [10] [µM]
20 | Cc1cc2c(nn1)-c1ccccc1C2=O | > 10 | > 10 | > 10 | > 10 | > 10 | > 10 | > 10 | > 10 | > 10 | > 10
21 | CC12CC1C(c1cccc([N+](=O)[O-])c1)(c1cccc([N+](=O)[O-])c1)N=N2 (stereo not given) | 52.9 | 52.7 | > 100 | > 100 | > 100 | > 100 | 33.8 | > 100 | 88.8 | 53.1
22 | CC1=C[C@@H](C)C[C@]2(C)CC[C@H](O2)[C@]23CC[C@](C(=O)O)(C[C@H](O2)[C@@H]2O[C@@](C)(CC2=O)[C@@H](O)[C@H]2CC[C@@]4(CCC[C@@H](O4)[C@H](C)C(=O)O[C@H]4C[C@H]([C@]5(O)OCC[C@H](C)[C@@H]5O)O[C@H]4C=C1)O2)O3 | > 10 | > 10 | > 10 | > 10 | > 10 | > 10 | > 10 | > 10 | > 10 | > 10
23 | O/C(=C\c1nc2ccccc2nc1NC12CC3CC(CC(C3)C1)C2)c1ccc(Br)cc1 | > 10 | > 10 | > 10 | > 10 | > 10 | > 10 | > 10 | > 10 | > 10 | > 10
24 | COc1ccc(N=C2C(=S)N(c3ccc(OC)cc3)/C(=N/S(=O)(=O)c3ccccc3)N2c2ccccc2)cc1 | 25.1 | 19.7 | 12.2 | 32 | 29.2 | > 61 | 17.7 | 31.8 | 11.1 | 36.2
25 | COc1ccc(N=Nc2c3c(c(O)c4ccccc24)CCC(C)(C)O3)cc1 | 62.3 | 73.8 | 39.3 | 43.3 | 31.5 | 50.4 | 28.9 | 54.1 | 87 | 40.6
26 | COc1cc([C@@H]2c3cc4c(cc3[C@@H](c3c(O)cc(O)c5c3O[C@H](c3ccc(O)c(O)c3)[C@@H](O)C5)[C@H]3COC(=O)[C@H]23)OCO4)cc(OC)c1O | > 100 | > 100 | > 100 | > 100 | > 100 | > 100 | > 100 | > 100 | > 100 | > 100
27 | CSC(SC)=C1C(=O)N(c2ccccc2)N=C1C | > 100 | 62 | 60.8 | > 100 | > 100 | 98.1 | 54 | 54.6 | > 100 | 58.8
28 | COC(=O)C1=C(C)NC(C)=C([N+](=O)[O-])C1c1cccc(N=O)c1 (stereo not given) | 30.9 | 27.2 | 25.8 | 30.5 | 32 | > 100 | 23 | 41.2 | 32.9 | 25.2
29 | O=C(CNCc1ccccc1)Oc1c(Cl)c(Cl)c(Cl)c(Cl)c1Cl | 95.6 | > 100 | > 100 | > 100 | > 100 | > 100 | > 100 | 48.7 | 48.1 | 65.3
30 | CC(C)(C)c1ccc(OCC(=O)O)c(Cl)c1 | > 100 | > 100 | > 100 | > 100 | > 100 | > 100 | > 100 | > 100 | > 100 | > 100
31 | O=C1CCCc2cc3c(cc21)CC1(C3)Cc2ccc3c(c2C1)C(=O)CCC3 (stereo not given) | > 100 | > 100 | 36.3 | > 100 | > 100 | > 100 | > 100 | > 100 | > 100 | 43.6
32 | N#Cc1c(C#N)c(-c2ccccc2)n(-c2ccccc2)c1N | > 100 | > 100 | > 100 | > 100 | > 100 | > 100 | > 100 | > 100 | > 100 | > 100
33 | COc1cc(CC(C)N)ccc1O (stereo not given) | > 100 | > 100 | > 100 | > 100 | > 100 | > 100 | > 100 | > 100 | > 100 | > 100
34 | O=C(O)c1c2c(cc3c1CC1(Cc4ccccc4C1=O)C3)CCC2 (stereo not given) | > 95.4 | > 100 | 70.7 | > 100 | > 100 | > 100 | > 100 | > 100 | > 100 | 76.6
35 | Cc1cn2c(C)csc2c1P(=O)(OC(C)C)OC(C)C | > 100 | > 100 | > 100 | > 100 | > 100 | > 100 | > 100 | > 100 | > 100 | > 100
36 | O=C1c2cccc(NCCNCCO)c2C(=O)c2cccc(NCCNCCO)c21 | 2.74 | 3.95 | 3.57 | 5.67 | 2.15 | 5.53 | 4.77 | 4.84 | 3.02 | 3.65
37 | N#CC(=N)c1ncn(-c2ccccc2N)c1N | > 100 | > 100 | > 100 | > 100 | > 100 | > 100 | > 100 | > 100 | > 100 | > 100
38 | COP(=O)(OC)C12CCOCCN1c1ccccc1C2=O (stereo not given) | > 100 | > 100 | > 100 | > 100 | > 100 | > 100 | > 100 | > 100 | > 100 | > 100
